{"source": "patent US9335326B2", "about": "“Compositions and methods for characterizing a myopathy” (The Johns Hopkins University, priority 2010, dated 2016)", "key": {"HeLa cells": {"test_system": "HeLa cells", "assay": "Immunoprecipitation of 200-kd and 100-kd autoantigens from radiolabeled lysates of mevinolin-treated HeLa cells with patient serum", "format": "cell-based", "details": "HeLa cells pretreated for 24 hours with 10 pM mevinolin versus vehicle (DMSO) alone; FIG. 5A", "procedure": "Given the strong association of statin use with the development of these anti-200/100-kd autoantibodies, HeLa cells were labelled with ^35S-methionine/cysteine after pretreatment for 24 hours with either 10 pM mevinolin or vehicle (DMSO) alone. To validate the protein equivalence of these lysates, immunoprecipitations were performed using antibodies against Mi-2 or PM-Scl. As anticipated, equal amounts of Mi-2 and the 5 protein components of the PM-Scl complex were detected in each lysate type.\nSerum samples collected from each patient were stored at −80° C. HeLa cells cultured using standard procedures were radiolabeled for two hours with 100 μCi/ml ^35S-methionine and cysteine (MP Biomedicals, Solon, Ohio) in methionine-free and cysteine-free medium. The cells were subsequently lysed in buffer A (50 mM Tris pH 7.4, 150 mM NaCl, […], 0.5% Nonidet P40, 0.5% sodium deoxycholate, 0.1% sodium dodecyl sulfate (SDS), and a protease inhibitor cocktail). Each 10-cm dish was lysed in 1 ml buffer A and was used for 10 immunoprecipitations. Immunoprecipitations were performed by adding 1 μl of patient sera to 100 μl radiolabeled lysate and bringing the volume to 1 ml with buffer B (1% Nonidet P40, 20 mM Tris pH 7.4, 150 mM NaCl, 1 mM EDTA, and a protease inhibitor cocktail) and rotating the mix for one hour at 4° C. […]"}, "[1]": {"test_system": "anti-200/100 autoantibody-positive patients", "assay": "Treatment response (objective improvement in strength) of anti-200/100 autoantibody-positive patients with necrotizing myopathy", "format": "in vivo, human", "source_text": "Medication regimens and treatment responses (based on objective improvements in strength) were variable. The clinical characteristics of the 16 anti-200/100 autoantibody-positive patients are available. […] Six (43%) of the 14 patients experienced a relapse when immunosuppressive medication was tapered or withdrawn. Seven […] of the 14 patients are currently undergoing tapering of their immunosuppressive medications and have not experienced a relapse to date. Only 1 patient had complete tapering of immunosuppressive medications without experiencing a relapse of weakness.\nTwo hundred twenty-five patients with banked sera, muscle biopsy specimens available for review, and a myopathy as defined by proximal muscle weakness, elevated creatine kinase (CK)levels, myopathic electromyography (EMG) findings, muscle edema on magnetic resonance imaging (MRI), and/or features of myopathy on muscle biopsy were enrolled in a longitudinal study, approved by the Johns Hopkins Institutional Review Board, from March 2007 through December 2008. […]"}, "[2]": {"test_system": "human anti-HMGCR antibodies", "assay": "Competition immunoprecipitation: patient sera preincubated with unlabeled C-terminal HMGCR, then IP of full-length IVTT HMGCR", "format": "binding", "details": "anti-HMGCR-positive sera preincubated with increasing concentrations of unlabeled C-terminal HMGCR; FIG. 7A", "source_text": "HMG-CoA reductase is a membrane protein with a small extracellular domain, seven membrane-spanning domains, and an intracellular catalytic domain. To define the region(s) of the protein recognized by sera from patients with anti-HMGCR antibodies, 35S-methionine-labeled full-length HMGCR protein, an N-terminal fragment including the extracellular and membrane-spanning domains (aa 1-377 of SEQ ID NO: 1), and a C-terminal fragment including the intracellular portion of the molecule (aa 340-888 of SEQ ID NO: 1) were synthesized. Serum from anti-HMGCR-positive patients consistently immunoprecipitated full-length HMGCR and the C-terminal fragment, but not the N-terminal fragment (FIG. 6). When anti-HMGCR-positive sera were preincubated with increasing concentrations of unlabeled C-terminal HMGCR prior to immunoprecipitation of 35S-methionine-labeled full-length HMGCR protein, immunoprecipitation was abolished (FIG. 7A).\nDNA encoding full-length human HMG-CoA reductase was purchased from Invitrogen (Carlsbad, Calif.). […]\nOne microliter of each patient serum was preincubated (30 minutes at 4° C. in 50 μl) with the catalytic domain of human HMG-CoA reductase (aa 426-888 of SEQ ID NO: 1) expressed as a fusion protein with glutathione S-transferase (hereinafter referred to as “C-terminal HMG-CoA reductase”; Sigma). […]"}}}
{"molecule": "CC[C@H](C)C(=O)O[C@H]1C[C@@H](C)C=C2C=C[C@H](C)[C@H](CC[C@@H]3C[C@@H](O)CC(=O)O3)[C@H]21", "note": "[mevinolin]", "values": [{"measurement": "increased levels of both the 200-kd and the 100-kd protein immunoprecipitated", "setting": "HeLa cells", "result": 3, "unit": "fold"}]}
{"molecule": "C[C@]12C=CC(=O)C=C1CC[C@@H]1[C@@H]2C(=O)C[C@@]2(C)[C@H]1CC[C@]2(O)C(=O)CO", "note": "[prednisone]", "values": [{"measurement": "initial response to prednisone", "setting": "[1]; most patients, combination immunosuppressive therapy was required", "result": "very modest initial response"}]}
{"molecule": "Rituximab: immunosuppressant drug", "values": [{"measurement": "benefit as adjunct therapy", "setting": "[1]; added to prednisone and azathioprine or methotrexate", "result": "helpful adjuncts"}]}
{"molecule": "C-terminal HMGCR: catalytic domain of human HMG-CoA reductase (aa 426-888 of SEQ ID NO: 1) expressed as a fusion protein with glutathione S-transferase (Sigma) (protein, UniProt P04035 426-888, looked up, fragment, GST fusion) SSVLVTQEPEIELPREPRPNEECLQILGNAEKGAKFLSDAEIIQLVNAKHIPAYKLETLMETHERGVSIRRQLLSKKLSEPSSLQYLPYRDYNYSLVMGACCENVIGYMPIPVGVAGPLCLDEKEFQVPMATTEGCLVASTNRGCRAIGLGGGASSRVLADGMTRGPVVRLPRACDSAEVKAWLETSEGFAVIKEAFDSTSRFARLQKLHTSIAGRNLYIRFQSRSGDAMGMNMISKGTEKALSKLHEYFPEMQILAVSGNYCTDKKPAAINWIEGRGKSVVCEAVIPAKVVREVLKTTTEAMIEVNINKNLVGSAMAGSIGGYNAHAANIVTAIYIACGQDAAQNVGSSNCITLMEASGPTNEDLYISCTMPSIEIGTVGGGTNLLPQQACLQMLGVQGACKDNPGENARQLARIVCGTVMAGELSLMAALAAGHLVKSHMIHNRSKINLQDLQGACTKKTA", "values": [{"measurement": "immunoprecipitation of 35S-methionine-labeled full-length HMGCR protein", "setting": "[2]", "result": "abolished"}]}
